Assay results: patent US10155733B2, “N-aralkylcarbonyl-piperazine and -homopiperazine compounds and personal care compositions comprising the same” (Conopco, Inc., priority 2015, dated 2018)

System: not listed separately
Assay: pH measurements of test compound solutions
Format: physicochemical
Conditions: not given
Experimental: Equimolar amounts of test compounds were used instead of weight % amounts to ensure a fair (molar-basis) comparison between test compounds. […] The pH of all test solutions was measured @ 22° C. using a Corning pH meter model 430 with a flat surface combo w/RJ electrode. The pH meter was calibrated using standard pH 7 & 12 buffers.

Compound | Measured pH of solution
O=C(N1CCNCC1)C(O)(c1ccccc1)C1CCCC1 (stereo not drawn) [Compound 6b] | 10.0
O=C(N1CCCNCC1)C(O)(c1ccccc1)C1CCCC1 (stereo not drawn) [Compound 6j] | 9.9

Same assay, conditions: 79 mM (equimolar) in isopropyl alcohol/water, 22° C.

Measured pH of solution | Compound
11.0 | CN1CCNCC1 [Compound 14]
11.5 | CN1CCCNCC1 [Compound 15]

Molecular target: human M3 receptor (Homo sapiens (Human), UniProt P20309)
Sequence (P20309 whole entry): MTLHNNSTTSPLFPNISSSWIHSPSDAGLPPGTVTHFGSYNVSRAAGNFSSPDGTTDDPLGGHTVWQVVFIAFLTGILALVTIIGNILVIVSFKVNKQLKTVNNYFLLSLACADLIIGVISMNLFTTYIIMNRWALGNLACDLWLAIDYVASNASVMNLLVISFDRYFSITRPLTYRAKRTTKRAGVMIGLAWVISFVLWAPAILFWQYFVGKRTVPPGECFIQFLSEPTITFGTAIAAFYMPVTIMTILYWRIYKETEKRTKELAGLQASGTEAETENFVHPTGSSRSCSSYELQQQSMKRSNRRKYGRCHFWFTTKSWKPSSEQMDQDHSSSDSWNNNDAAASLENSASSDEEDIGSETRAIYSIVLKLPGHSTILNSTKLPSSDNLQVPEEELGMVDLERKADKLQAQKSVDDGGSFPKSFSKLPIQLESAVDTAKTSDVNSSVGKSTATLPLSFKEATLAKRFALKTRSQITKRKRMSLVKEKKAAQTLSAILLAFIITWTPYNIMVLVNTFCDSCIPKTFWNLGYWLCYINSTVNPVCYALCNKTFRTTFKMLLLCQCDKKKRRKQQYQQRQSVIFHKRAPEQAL
Assay: Muscarinic 3 receptor binding assay (3H-scopolamine displacement)
Conditions: not given
Experimental: The muscarinic 3 receptor binding assay was adapted from Perkin Elmer. […] Atropine (Sigma-Aldrich, St. Louis, Mo.) was used as a positive control. […] The reaction mixtures were then added to matrix 96-well GFC filtration microtiter plates that had been previously pretreated with 0.5% polyethylimine (100 μL) for 4 h and filtered. The binding reactions were terminated by filtering through the GFC plates and washing & filtering with ice-cold phosphate saline buffer (5×100 μL). Once the filters were dry, microscint scintillation cocktail (100 μL) was added to each well, allowed to sit for 20 min and the plates analyzed using a TopCount scintillation counter. […] Curve fitting of % inhibition versus concentration using Excell software allowed determination of IC50 values for test compounds.

Compound | IC50 [µM]
O=C(C(c1ccccc1)C1CCCC1)N1CCN(CCc2ccccc2)CC1 (stereo not drawn) [Compound 7a] | 1.8
O=C(N1CCN(CCCc2ccccc2)CC1)C(O)(c1ccccc1)C1CCCC1 (stereo not drawn) [Compound 7d] | 0.063
O=C(N1CCN(C/C=C/c2ccccc2)CC1)C(O)(c1ccccc1)C1CCCC1 (stereo not drawn) [Compound 7e] | 0.195
O=C(N1CCN(CCc2ccccc2)CC1)C(O)(c1ccccc1)C1CCCC1 (stereo not drawn) [Compound 7f] | 4.7
CC(Cc1ccc2c(c1)OCO2)CN1CCN(C(=O)C(O)(c2ccccc2)C2CCCC2)CC1 (stereo not drawn) [Compound 7i] | 4.6
O=C(N1CCN(CCOc2ccccc2)CC1)C(O)(c1ccccc1)C1CCCC1 (stereo not drawn) [Compound 9c] | 1.2
COc1ccc(CCN2CCN(C(=O)C(O)(c3ccccc3)C3CCCC3)CC2)cc1 (stereo not drawn) [Compound 9d] | 0.357
O=C(CN1CCN(C(=O)C(O)(c2ccccc2)C2CCCC2)CC1)c1ccccc1 (stereo not drawn) [Compound 9h] | 2.7
O=C(N1CCN(CC(O)c2ccccc2)CC1)C(O)(c1ccccc1)C1CCCC1 (stereo not drawn) [Compound 11] | 4.3

Same assay, conditions: CHO cell membranes expressing human M3 receptor, 3H-scopolamine

IC50 [µM] | Compound
5.3 | CN1CCN(C(=O)C(c2ccccc2)C2CCCCC2)CC1 (stereo not drawn) [Compound 3a]
2.1 | CN1CCN(C(=O)C(c2ccccc2)C2CCCC2)CC1 (stereo not drawn) [Compound 3b]
7.9 | CCCCCCN1CCN(C(=O)C(c2ccccc2)C2CCCC2)CC1 (stereo not drawn) [Compound 3d]
0.409 | CN1CCCN(C(=O)C(c2ccccc2)C2CCCC2)CC1 (stereo not drawn) [Compound 3f]
2.1 | O=C(C(c1ccccc1)C1CCCC1)N1CCN(CCCc2ccccc2)CC1 (stereo not drawn) [Compound 7b]
6 | O=C(C(c1ccccc1)C1CCCC1)N1CCN(CCC2CCCCC2)CC1 (stereo not drawn) [Compound 9a]

Compound | IC50 [µM]
O=C(C(c1ccccc1)C1CCCC1)N1CCN(C/C=C/c2ccccc2)CC1 (stereo not drawn) [Compound 7c] | 0.599

System: human living skin equivalents
Assay: not given
Format: cell-based
Conditions: not given

Compound | % Increase in Ki-67 stained positive cells over vehicle [%]
O=C(N1CCN(CCCc2ccccc2)CC1)C(O)(c1ccccc1)C1CCCC1 (stereo not drawn) [Compound 7d] | 127
